Assay results taken from patent US20260306490A1, “PIM1 INHIBITOR FOR TREATING MYELOPROLIFERATIVE NEOPLASMS” (Sumitomo Pharma America, Inc., priority 2022, published 2026).

Tested on: MF patients
Test: Phase 1/2 clinical study in MF patients treated with HCl salt of Compound (1) (TP-3654-102)
Type: in vivo, human
Parameters: reduction in IL6 / reduction in IL12p40 / reduction in MMP9 / reduction in EN-RAGE / median TSS reduction from baseline: concentration or dose not given beside the values
Procedure: Patients with MF (primary MF, post-PV MF, post-ET MF) and DIPSS intermediate-1, intermediate-2, or high risk were enrolled in a Phase 1/2 clinical study.
Dose escalation to 960 mg BID and 1440 mg BID is intended.
Patients had to meet all of the following inclusion criteria to enroll in the study: • 1. Adult (≥18 years of age) • 2. Confirmed pathological diagnosis of primary MF (PMF) or post-PV-MF/postET-MF as per WHO diagnostic criteria and intermediate or high-risk primary or secondary MF based on the Dynamic International Prognostic Scoring System (DIPSS). • 3. Previously treated with a JAK inhibitor and are intolerant, resistant, refractory or lost response to the JAK inhibitor, or are ineligible to be treated with ruxolitinib or fedratinib at the discretion of the investigator. • 4. Grade≥2 bone marrow fibrosis, as confirmed by bone marrow biopsy within 12 weeks prior to Screening. • 5. Fulfill the following laboratory parameters: • a. Platelet count≥25×10^9/L (without the assistance of growth factors or platelet transfusions) • b. Absolute neutrophil count (ANC)≥1×10^9/L without the assistance of granulocyte growth factors. • 6. Peripheral blood blast count<10%. • 7. Eastern Cooperative Oncology Group (ECOG) performance status≤2. • 8. Life expectancy≥3 months. • 9. […] Adequate hepatic function (ALT/AST≤3×ULN, total bilirubin≤1.5×ULN; or ALT/AST≤5×ULN, direct bilirubin≤2×ULN if due to MF); and coagulation ([PT and PTT]≤1.5×ULN). • 11. Agree to provide bone marrow biopsies during the study: at baseline or within 12 weeks prior to enrollment, and every 6 months during treatment. • 12. Capable of providing signed informed consent as described in which includes compliance with the requirements and restrictions listed in the informed consent form (ICF) and in this protocol • 13. […] Show at least 2 symptoms measurable (score≥1) using the Myelofibrosis Symptom Assessment Form (MFSAF), v4.0. • 16. Able to take orally administered medication
Patients meeting any one of the exclusion criteria were prohibited from participating in the study: • 1. Received previous systemic antineoplastic therapy (including unconjugated therapeutic antibodies, toxin immunoconjugates, ESA, and alpha-interferon) or any experimental therapy within 14 days or 5 half-lives, whichever is longer, before the first dose of study treatment. • 2. Major surgery within 2 weeks before the first dose of either study drug. • 3. Splenic irradiation within 6 months prior to Screening or prior splenectomy. • 4. AML, MDS, or peripheral blasts≥10%. • 5. Prior autologous or allogeneic stem cell transplant at any time. • 6. Eligible for allogeneic bone marrow or stem cell transplantation within 3 months following enrollment (not a candidate or not willing to undergo transplantation or a suitable donor not available are considered as transplant ineligible). • 7. Currently receiving treatment with a prohibited medication that cannot be discontinued at least one week prior to the start of treatment. • 8. Experiencing electrolyte abnormalities of NCI CTCAE Grade≥2 (e.g., serum potassium, magnesium and calcium) unless they can be corrected during screening and are deemed not clinically significant by the Investigator. • 9. History of congestive heart failure, myocardial infarction within the past 6 months prior to Cycle 1/Day 1; left ventricular ejection fraction<45% by echocardiogram or MUGA, unstable arrhythmia, or evidence of ischemia on electrocardiogram (ECG) within 14 days prior to Cycle 1/Day 1. • 10. Corrected QT interval (using Fridericia's correction formula) of >450 msec in men and >470 msec in women. • 11. Central nervous system (CNS) cancer or metastases, meningeal carcinomatosis, malignant seizures, or a disease that either causes or threatens neurologic compromise (e.g., unstable vertebral metastases). • 12. Other invasive malignancies within the last 3 years, except non-melanoma skin cancer, and localized cured prostate and cervical cancer • 13. […]

[1] = R/R MF, ≥25 × 10^9/L PLT, monotherapy
[2] = TP-3654-102, R/R MF, monotherapy, N = 23
[3] = first interim analysis, FIG. 5G
[4] = first interim analysis, monotherapy, 480 mg QD to 720 mg BID
[5] = first interim analysis, over treatment duration
[6] = first interim analysis, treatment duration ≥12 weeks
[7] = one patient with bone marrow fibrosis reduction
[8] = second interim analysis, MFSAF v4.0
[9] = second interim analysis, n = 13

For `CC(C)(O)[C@H]1CC[C@H](Nc2ccc3ncc(-c4cccc(C(F)(F)F)c4)n3n2)CC1` [Compound (1)], the “Hem AE (>10%), thrombocytopenia” value (R/R MF, Ph 1) was “No ≥G3”, the “SVR35 at Week 24” value [1] was 23% and the “TSS50 at Week 24” value [1] was 54%. For the same compound, the “TEAE Anemia, All Gr” value [2] was 13%, the “TEAE Anemia, ≥3 Gr” value [2] was 4.3% and the “TEAE Neutropenia, All Gr” value [2] was 0%. For the same compound, the “TEAE Neutropenia, ≥3 Gr” value [2] was 0%, the “TEAE Thrombocytopenia, All Gr” value [2] was 22% and the “TEAE Thrombocytopenia, ≥3 Gr” value [2] was 13%. For the same compound, the “patients with myelosuppressive adverse events (anemia, neutropenia, thrombocytopenia)” value (first interim analysis) was 1 patient, the “time at which cytokine modulation was observed (as early as)” value (first interim analysis) was at most 24 h and the “patients with reduced spleen size and reduced symptoms” value [3] was 4 patients. The “patients with spleen volume increase and reduced symptoms” value [3] was 1 patient, the “patients with spleen volume reduction and increased symptoms” value [3] was 1 patient and the “reductions in cytokines vs total symptoms reduction” value (first interim analysis, cytokine changes available for 7 patients) was “More reductions in cytokines were observed in patients who had more total symptoms reduction”. For the same compound, the hemoglobin [4] was “increased in some patients”, the neutrophil counts [4] was “stable” and the platelet counts [4] was “stable or increased”. The “spleen volume, median best change” value [5] was −13%, the “total symptom score, median best change” value [5] was −70% and the “patients with spleen volume reduction” value [6] was “Eight out of 10”. For the same compound, the “patients with total symptom reduction” value [6] was “Nine out of 10”, the “change for platelet count, hemoglobin, and neutrophil reduction” value (for most patients, monotherapy) was “less than 1 grade” and the “reduction in EN-RAGE” value [7] was 68%. For the same compound, the “reduction in IL12p40” value [7] was 83%, the “reduction in MMP9” value [7] was 56% and the “reduction in IL6” value (one patient with bone marrow fibrosis reduction, printed 1L6) was 68%. The “bone marrow fibrosis reduction” value (one patient, on active treatment >18 months) was “from grade 3 to 2”, the “overlapping hematological toxicities (thrombocytopenia and/or anemia)” value (relative to toxicities reported for other MF treatments) was “minimal or no indication of overlapping hematological toxicities” and the “patients achieving ≥35% SVR (number)” value (second interim analysis) was 3 of 13. The “median spleen volume change” value (second interim analysis, 13 evaluable patients) was −11%, the dose limiting toxicities (second interim analysis, 23 patients, 5 dose levels) was “no dose limiting toxicities” and the “median TSS reduction from baseline” value [8] was 70%. For the same compound, the “patients with TSS reduction” value [8] was 12 out of 13, the “patients with ≥50% TSS reduction (number)” value [8] was “Seven of 13” and the “patients achieving ≥35% SVR (percent)” value [9] was 23%. The “patients with ≥50% TSS reduction (percent)” value [9] was 54%, the “patients with ≥50% TSS reduction and durable response for ≥12 weeks” value (second interim analysis, of seven patients with ≥50% TSS reduction) was 5 patients and the “patients with spleen volume reduction (SVR)” value (second interim analysis, ≥12 weeks of treatment, 13 evaluable) was 10 patients. The doses declared safe (second interim analysis, printed mg BTD) was “up to 720 mg”.
